Numbers after ± are expanded uncertainties.
Conditions: 298.15 K, Liquid; for viscosity: 101 kPa, Capillary tube (Ostwald / Ubbelohde) method; for mass density: 101.33 kPa

viscosity [mPa·s]	mass density [kg/m3]	Structure (SMILES)
0.944 ± 0.008	936.54 ± 1.4	CC(=O)N(C)C [N,N-dimethylethanamide]
1.672 ± 0.014	1027.91 ± 1.6	CN1CCCC1=O [N-methylpyrrolidone]
0.804 ± 0.007	943.65 ± 1.5	CN(C)C=O [dimethylformamide]

Structure (SMILES)	viscosity [mPa·s]	mass density [kg/m3]
O=C1CCCN1 [2-pyrrolidinone]	13.19 ± 0.17	1106.82 ± 2

Reference: the NIST ThermoML archive (doi:10.1021/je049657g)
